Here are results for one compound from article PMC8850433, “CRISPR-assisted rational flux-tuning and arrayed CRISPRi screening of an L-proline exporter for L-proline hyperproduction” (Nature Communications, 2022).

The test concerns the target T1, Cgl2622 (Corynebacterium glutamicum, UniProt Q79VD1).
T1 construct: full-length membrane exporter, expressed from plasmid under IPTG-inducible Ptrc in cgl2622-deleted C. glutamicum
It is filed as cell-based. The conditions noted are these: intact C. glutamicum cells, CGXII medium, 20 g/L glucose, 3 mM Thr-Pro peptide, 30 °C; efflux.

Each structure is given as a SMILES string.

T1 sequence (Q79VD1 1-489): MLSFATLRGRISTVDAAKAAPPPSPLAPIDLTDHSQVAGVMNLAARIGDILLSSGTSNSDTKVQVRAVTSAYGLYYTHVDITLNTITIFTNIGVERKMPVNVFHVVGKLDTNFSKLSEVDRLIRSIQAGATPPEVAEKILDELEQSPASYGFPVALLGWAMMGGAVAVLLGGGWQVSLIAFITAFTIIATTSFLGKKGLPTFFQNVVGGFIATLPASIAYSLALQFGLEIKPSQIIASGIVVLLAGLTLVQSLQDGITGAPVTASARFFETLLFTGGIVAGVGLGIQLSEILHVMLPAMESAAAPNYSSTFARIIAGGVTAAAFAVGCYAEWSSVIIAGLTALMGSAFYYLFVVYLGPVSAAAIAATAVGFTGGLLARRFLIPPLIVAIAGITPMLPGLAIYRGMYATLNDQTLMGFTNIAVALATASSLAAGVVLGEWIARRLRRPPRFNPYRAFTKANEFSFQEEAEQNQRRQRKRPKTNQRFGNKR

`O=C(O)[C@@H]1CCCN1` [L-proline]: the “Thr-Pro peptide uptake and amino acid export assay, deletion vs complementation,” value is listed as “These results further verify the function of Cgl2622 as an L-proline exporter”.
